The text below walks through data of patent publication US4532258A, “Certain cyclopropane carboxylic acid esters and their pesticidal use” (priority 1979, dated 1985).

SMILES strings stand for the structures. Values after ≈ are worked out from the molar mass of the structure shown.

One data set can be described thus: Fish toxicity test. Type of data set: in vivo. Conditions: guppy, water, female guppies, 20° C., 50% killed, read-out: TLm (medium tolerance limit). As for the experimental part: The mixture was stirred well to prepare a test water. Ten female guppies from 3 to 4 months of age were released into the test water and maintained at 20° C. The concentration of the test compound at which 50% of the guppies were killed during the ensuring 48 hours was determined. [This concentration is referred to as TLm (medium tolerance limit, ppm)].

Data set [1] in a line: Light stability test (residue after exposure to ultraviolet light). Type of data set: physicochemical. Conditions: UV 3600 Å, 31°-35° C. The method, then: Into 2.0 ml of acetone were dissolved 80 mg of each test compound. A 5 μl portion of the solution was taken and spread on a glass plate (Micro Standard Cover Glass, 18 m/m No. 1, 200 pcs, Matsunami Glass Ind., Ltd.) and the acetone was evaporated. The specimen was exposed to ultraviolet light from a fluorescent lamp (Tokyo Shibaura Electric Co., Ltd., FL20BL, glow-type, 100 V, 24.5 W, wavelength=3600 Å) which was fixed just above the specimen at a distance of 11 cm at a temperature of 31°-35° C. for a predetermined exposure time. The test liquid was washed away with 1.0 ml of methanol containing 0.04% of dioctyl phthalate as an internal reference and high-speed liquid chromatography was carried out on the washings to determine the residual amount of the test compound.

Turning to `CC1(C)[C@H](CC(Cl)(Cl)Cl)[C@H]1C(=O)OC(C#N)c1cccc(Oc2ccccc2)c1` (relative stereo) [(7) [Trans-isomer]], in the data set “Fish toxicity test”, the LC50 at 48 h lay in the range of 0.5 to 10 µg/mL (≈ 1.1 to 22.1 µM).

For `C#CC(OC(=O)[C@@H]1[C@@H](CC(Cl)(Cl)Cl)C1(C)C)c1cccc(Oc2ccccc2)c1` (relative stereo) [(11) [Trans-isomer]], the LC50 at 48 h in the data set “Fish toxicity test” was not below 10 µg/mL.

`C#CC(OC(=O)[C@@H]1[C@H](CC(C)(Cl)Cl)C1(C)C)c1cccc(Oc2ccccc2)c1` (relative stereo) [(13) [Cis-isomer]]: the LC50 at 48 h in the data set “Fish toxicity test” is not below 10 µg/mL.

`CC1(C)[C@H](C(=O)OC(C(N)=S)c2cccc(Oc3ccccc3)c2)[C@@H]1CC(Cl)(Cl)Cl` (relative stereo) [(27) [Cis-isomer]]: in “Fish toxicity test”, the LC50 at 48 h is not below 10 µg/mL.

Take `CC1(C)C(CC(Cl)(Cl)Cl)C1C(=O)OC(C#N)c1cccc(OC=C(Cl)Cl)c1` (stereo not drawn) [(34) [Mixture]]: the “Residue (%)” value in data set [1] (exposure time 3.5 hrs.) was 100%; in data set [1] (exposure time 3 days), 88%; in data set [1] (exposure time 5 days), 44%.

Turning to `C=CCC1=C(C)C(OC(=O)C2C(C=C(C)C)C2(C)C)CC1=O` (stereo not drawn) [Allethrin, reference compound], the “Residue (%)” value in data set [1] (exposure time 3.5 hrs.) is listed as 14%; in data set [1] (exposure time 3 days) it was 0%.
